Assay results reported in patent US20110183925A1, “ANTI-INFLAMMATORY PEPTIDE” (NISSHIN PHARMA INC., priority 2008, published 2011).
Where no end group is shown, it is not given here. [ ]: non-standard residue; d: D form. pGlu = O=C1CC[C@@H](C(=O)O)N1

Molecular target: T1, Recombinant Human TACE (Homo sapiens, UniProt P78536)
T1 construct: purchased R&D Systems
Assay: Measurement of TACE-inhibiting activity (fluorogenic substrate, HPLC quantification)
Format: biochemical
Conditions: 1 mg/mL peptide sample, 10 μL in reaction; 37° C., 20 minutes; Control (No Peptide) = 100%; lower = more inhibition
Protocol: One mg/mL each of samples of pyroglutamyl peptides (pyroGlu-Leu, pyroGlu-Val, pyroGlu-Met, pyroGlu-Phe, pyroGlu-Gln-Gln, and pyroGlu-Pro-Gln) synthesized in Production Examples above were prepared and evaluated for TACE-inhibiting activity as follows.
Each sample (10 μL) was added to 10 μL of 1 μmol/L reactive substrate (TACE Substrate (Mac-PLAQAV-Dpa-RSSSR-NH2) from Biomol. International LP), 10 μL of 10 ng/10 μL enzyme solution (Recombinant Human TACE from R&D Systems), 50 μL of buffer (50 mmol/L Tris-HCl, pH 9.0, 5 μM ZnCl2, 0.01% Brij35), and 20 μL of distilled water, which was reacted at 37° C. for 20 minutes. Thereto was added 10% trifluoroacetic acid to a final concentration of 1% to stop the reaction. The substrate and the product were separated under the following conditions using reversed-phase high-performance liquid chromatography. The substrate and the product were fluorescently measured at an excitation wavelength of 320 nm and a measuring wavelength of 405 nm for quantification.
(§1) (Chromatography Condition)
(§2) Solution A: 10% acetonitrile (0.1% TFA)/Solution B: 80% acetonitrile (0.1% TFA)
(§3) Gradient: Solution B from 50% to 100%
(§4) Measuring Wavelength: 230 nm
The results are shown in Table 1 below as the ratio of the fluorescence intensity of the product to the fluorescence intensity of the product and the substrate.

T1 sequence (P78536 215-824): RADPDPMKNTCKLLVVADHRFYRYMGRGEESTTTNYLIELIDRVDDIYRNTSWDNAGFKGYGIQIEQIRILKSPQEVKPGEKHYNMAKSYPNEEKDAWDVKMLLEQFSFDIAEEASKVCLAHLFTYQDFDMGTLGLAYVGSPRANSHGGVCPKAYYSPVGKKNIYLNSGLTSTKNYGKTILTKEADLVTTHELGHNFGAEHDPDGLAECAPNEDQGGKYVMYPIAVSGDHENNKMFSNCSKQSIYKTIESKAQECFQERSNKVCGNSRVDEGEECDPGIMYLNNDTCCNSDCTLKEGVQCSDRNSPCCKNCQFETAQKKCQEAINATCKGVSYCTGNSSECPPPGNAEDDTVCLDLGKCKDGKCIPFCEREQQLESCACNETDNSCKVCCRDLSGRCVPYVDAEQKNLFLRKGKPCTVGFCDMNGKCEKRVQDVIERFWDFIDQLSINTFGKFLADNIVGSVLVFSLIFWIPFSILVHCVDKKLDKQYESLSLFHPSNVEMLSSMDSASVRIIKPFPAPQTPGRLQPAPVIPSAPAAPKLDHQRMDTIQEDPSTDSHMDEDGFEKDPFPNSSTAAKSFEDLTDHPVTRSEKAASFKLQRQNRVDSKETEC

Going from [pGlu]-Gln-Gln to [pGlu]-Leu, the “ratio of the fluorescence intensity of the product to the fluorescence intensity of the product and the substrate (TACE reaction)” value (from here on “ratio … (TACE reaction)”) falls from 70% to 61%.

Going from [pGlu]-Met to [pGlu]-Pro-Gln, the “ratio … (TACE reaction)” value falls from 83% to 66%.

Compared with [pGlu]-Val, pyroGlu-Phe is higher in “ratio … (TACE reaction)” value: 81% for the first, 84% for the second.

Molecular target: T2, Caspase-1 (ICE) (Homo sapiens, UniProt P29466)
T2 construct: purchased Biomol; International LP
T2 sequence (P29466 120-297 limits assumed): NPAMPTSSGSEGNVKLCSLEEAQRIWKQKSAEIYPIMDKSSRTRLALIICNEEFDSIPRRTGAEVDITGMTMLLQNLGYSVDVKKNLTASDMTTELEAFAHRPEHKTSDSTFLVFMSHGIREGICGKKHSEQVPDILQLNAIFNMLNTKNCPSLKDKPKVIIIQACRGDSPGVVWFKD
T2 sequence (P29466 317-404 limits assumed): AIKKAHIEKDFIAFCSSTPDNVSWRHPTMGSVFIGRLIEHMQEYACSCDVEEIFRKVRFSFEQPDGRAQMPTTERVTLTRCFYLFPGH
Assay: Measurement of ICE-inhibiting activity (Ac-Trp-Glu-His-Asp-AMC substrate, HPLC quantification)
Format: biochemical
Conditions: 1 mg/mL peptide sample, 5 μL in reaction; 37° C., 20 minutes; Control (No Peptide) = 100%; lower = more inhibition
Protocol: One mg/mL each of samples of pyroglutamyl peptides (pyroGlu-Leu, pyroGlu-Val, pyroGlu-Met, pyroGlu-Phe, pyroGlu-Gln-Gln, and pyroGlu-Pro-Gln) synthesized in Production Examples above were prepared and evaluated for ICE-inhibiting activity as follows.
Each sample (5 μL) was added to 10 μL of 2,000 μmol/L reactive substrate (Caspase-1 substrate (Ac-Trp-Glu-His-Asp-AMC) from Alexis Biochemicals), 5 μL of 10 U/μl enzyme solution (Caspase-1 from Biomol. International LP), 60 μL of buffer (50 mmol/L HEPES, pH 7.4, 100 mM NaCl, 0.1% CHAPS, 1 mM EDTA, 10% glycerol, and 10 mM DTT), and 20 μL of distilled water, which was reacted at 37° C. for 20 minutes. Thereto was added 10% trifluoroacetic acid to a final concentration of 1% to stop the reaction. The substrate and the product were separated under the following conditions using reversed-phase high-performance liquid chromatography. The substrate and the product were fluorescently measured at an excitation wavelength of 380 nm and a measuring wavelength of 460 nm for quantification.
as §1, §2, §3, §4
The results are shown in Table 2 below as the ratio of the fluorescence intensity of the product to the fluorescence intensity of the product and the substrate.

First: [pGlu]-Gln-Gln
Second: [pGlu]-Leu
The “ratio of the fluorescence intensity of the product to the fluorescence intensity of the product and the substrate (ICE/caspase-1 reaction)” value (“ratio … (ICE/caspase-1 reaction)” below) of the first is higher: 63% for the first, 55% for the second.

Going from [pGlu]-Met to [pGlu]-Pro-Gln, the “ratio … (ICE/caspase-1 reaction)” value falls from 75% to 62%.

Going from [pGlu]-Val to pyroGlu-Phe, the “ratio … (ICE/caspase-1 reaction)” value falls from 74% to 72%.
